Measurements reported in paper PMC7749613 (Journal of Cachexia, Sarcopenia and Muscle, 2020).
Bridge positions count the residues as written; N and C are the ends. Square brackets hold non-standard residues; d marks the D form. Peptide text beside a SMILES is read from it. d2Nal = N[C@H](Cc1ccc2ccccc2c1)C(=O)O; Nle = CCCC[C@H](N)C(=O)O

Legend:
[1] = In vivo mass balance study (urinary and faecal recovery) in mice; settings: mouse, in vivo; for dose excreted at 24 h: total radioactivity
Method: Each mouse was then placed in a metabolic cage for 24 h, along with food and water, and the urine and faeces were collected. The metabolic cage was washed several times, after which 100 μL aliquots of diluted urine and faeces was placed in separate vials. Radioactivity measurements were then performed as described previously. All animal procedures were approved by the Institutional Animal Care and Use Committee at the University of Michigan, Ann Arbor.

[2] = molecular target: T1, OCT2 (Homo sapiens, UniProt O15244); assay: Inhibition of prototypical substrate (MPP+) uptake by TCMCB07 in HEK293/OCT2 cells; type: in vitro ADME
T1 construct: host or cells: HEK293
T1 sequence (O15244 1-555): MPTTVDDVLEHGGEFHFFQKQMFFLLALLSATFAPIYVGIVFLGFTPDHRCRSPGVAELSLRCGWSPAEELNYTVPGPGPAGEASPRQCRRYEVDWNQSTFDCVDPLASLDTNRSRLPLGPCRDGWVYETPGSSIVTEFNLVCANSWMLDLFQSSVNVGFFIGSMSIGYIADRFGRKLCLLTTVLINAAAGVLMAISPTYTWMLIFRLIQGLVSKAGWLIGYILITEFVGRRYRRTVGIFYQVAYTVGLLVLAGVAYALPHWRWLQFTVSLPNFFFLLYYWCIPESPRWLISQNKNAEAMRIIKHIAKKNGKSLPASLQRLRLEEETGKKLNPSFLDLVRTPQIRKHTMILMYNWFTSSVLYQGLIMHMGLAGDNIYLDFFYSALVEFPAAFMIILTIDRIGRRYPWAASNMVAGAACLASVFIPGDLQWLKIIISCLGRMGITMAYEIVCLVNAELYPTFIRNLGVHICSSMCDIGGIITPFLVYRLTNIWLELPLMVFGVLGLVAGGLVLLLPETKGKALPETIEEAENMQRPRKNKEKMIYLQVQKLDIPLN
Method: (§1) Cells were then washed three times × 1.0 mL each with pre‐warmed Hank's Balanced Salt Solution (HBSS) buffer. A 0.5 mL aliquot of uptake buffer [HBSS plus 10 mM 4‐(2‐hydroxyethyl)‐1‐piperazineethanesulfonic acid (HEPES), pH 7.4], containing the radiolabelled prototypical substrate and mannitol, was then incubated for various times up to 60 min to determine the optimal incubation time for subsequent experiments (i.e. time of sampling during linear uptake conditions). At the designated times, 1.0 mL of ice‐cold HBSS buffer was added to stop uptake after which the cells were rinsed three times with 1.0 mL with ice‐cold HBSS. Hyamine hydroxide (0.33 mL) was then added to each well to lyse the cells. The cells were transferred into a scintillation vial and mixed with 6.0 mL of cytosine scintillation cocktail. Radioactivity of the solubilized cells was determined with a dual‐channel liquid scintillation counter (Beckman LS 6000; Beckman Coulter Inc., Fullerton, CA) and the protein quantified by a bicinchoninic acid protein assay kit (Pierce Biotechnology; Rockford, IL).

[3] = molecular target: T2, OATP1B3 (Homo sapiens, UniProt Q9NPD5); assay: Inhibition of prototypical substrate (CCK‐8) uptake by TCMCB07 in HEK293/OATP1B3 cells; type: in vitro ADME
T2 construct: host or cells: HEK293
T2 sequence (Q9NPD5 1-702): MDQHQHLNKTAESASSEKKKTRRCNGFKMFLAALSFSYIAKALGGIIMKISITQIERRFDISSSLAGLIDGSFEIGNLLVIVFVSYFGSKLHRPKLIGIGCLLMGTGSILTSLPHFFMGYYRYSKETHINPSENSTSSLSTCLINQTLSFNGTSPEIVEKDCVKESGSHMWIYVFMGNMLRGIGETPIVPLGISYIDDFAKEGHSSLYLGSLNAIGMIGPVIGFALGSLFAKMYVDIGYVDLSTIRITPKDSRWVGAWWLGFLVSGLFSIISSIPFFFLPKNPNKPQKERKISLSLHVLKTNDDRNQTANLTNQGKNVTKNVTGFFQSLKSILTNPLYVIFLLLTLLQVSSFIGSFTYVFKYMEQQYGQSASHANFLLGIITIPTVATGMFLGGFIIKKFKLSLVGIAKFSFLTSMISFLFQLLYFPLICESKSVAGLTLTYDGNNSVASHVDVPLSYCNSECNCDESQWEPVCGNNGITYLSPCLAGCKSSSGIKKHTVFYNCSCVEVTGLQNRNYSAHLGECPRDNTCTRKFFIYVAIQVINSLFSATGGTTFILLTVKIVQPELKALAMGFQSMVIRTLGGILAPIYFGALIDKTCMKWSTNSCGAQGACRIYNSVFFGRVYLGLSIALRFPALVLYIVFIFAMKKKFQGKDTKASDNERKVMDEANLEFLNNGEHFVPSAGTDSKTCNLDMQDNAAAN
Method: as §1

oral absorption [1]: 24.2%
dose excreted at 24 h ([1]; iv, 23.3 mg/kg, % Urinary recovery, intravenous TCMCB07): 14%
dose excreted at 24 h ([1]; iv, faecal (biliary) share of total recovery (faeces/(urine + faeces))): 76%
dose excreted at 24 h ([1]; po, 23.3 mg/kg, % Urinary recovery, oral TCMCB07): 5%
dose excreted at 24 h ([1]; po, faecal share of total recovery (faeces/(urine + faeces))): 95%
IC50 [2]: 1.17 mM
IC50 [3]: 307 ± 39 µM
Slope factor ([3]; slope factor n of Eqn 1, OATP1B3, substrate CCK‐8): 1.8 ± 0.3
SMILES: CCCC[C@H](NC(C)=O)C(=O)N[C@H]1CC(=O)NCCCC[C@@H](C(=O)N[C@@H](C(=O)N2CCC[C@@H]2C(N)=O)C(C)C)NC(=O)[C@H](Cc2c[nH]c3ccccc23)NC(=O)[C@H](CCCN=C(N)N)NC(=O)[C@@H](Cc2ccc3ccccc3c2)NC(=O)[C@@H]2CCCN2C1=O [TCMCB07, Ac‐Nle‐c[Asp‐Pro‐dNal2′‐Arg‐Trp‐Lys]‐dVal‐dPro‐NH2] (Ac-[Nle]DP[d2Nal]RWK[dV][dP]-NH2; lactam 2-7)
